Data reported in PubChem BioAssay (NCI).
Values joined by “and” are separate entries in the source; they are usually repeats but may differ in a detail not shown here. Identical values can stand only once.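 Each compound was tested at five concentrations against cells in 96-well plates for 48 hours. GI50: concentration for 50% inhibition of growth. The concentration for full growth arrest is given as TGI.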 *1 amine or outer side, *2 acyl side, *3 side chain or, on linkers, in order; H or OH if unused. Where a SMILES comes first, the peptide text is derived from it. CO = O=C([*:1])[*:2]

Key:
Test in all cases: NCI tumour cell line growth inhibition, 48 h
SK-OV-3 ovarian = test system: SK-OV-3 ovarian
SK-MEL-5 melanoma = test system: SK-MEL-5 melanoma
T-47D breast = test system: T-47D breast
KM12 colon = test system: KM12 colon
MDA-MB-435 = test system: MDA-MB-435
SNB-19 CNS = test system: SNB-19 CNS
UACC-257 melanoma = test system: UACC-257 melanoma
COLO 205 colon = test system: COLO 205 colon
OVCAR-5 ovarian = test system: OVCAR-5 ovarian
HCC-2998 colon = test system: HCC-2998 colon

SMILES	GI50 (SK-OV-3 ovarian)	TGI (SK-OV-3 ovarian)	GI50 (SK-MEL-5 melanoma)	TGI (SK-MEL-5 melanoma)	GI50 (T-47D breast)	TGI (T-47D breast)	GI50 (KM12 colon)	TGI (KM12 colon)	GI50 (MDA-MB-435)	TGI (MDA-MB-435)	GI50 (SNB-19 CNS)	TGI (SNB-19 CNS)	GI50 (UACC-257 melanoma)	TGI (UACC-257 melanoma)	GI50 (COLO 205 colon)	TGI (COLO 205 colon)	GI50 (OVCAR-5 ovarian)	TGI (OVCAR-5 ovarian)	GI50 (HCC-2998 colon)	TGI (HCC-2998 colon)
CCN(CC)CCCN1C(=O)c2c(c(C)c3c(oc4cc(O)ccc43)c2C)C1=O	1.73 µM	3.2 µM	1.73 µM	3.14 µM	1.85 µM	3.8 µM	1.8 µM	3.37 µM	1.76 µM	3.22 µM	1.75 µM	3.35 µM	1.81 µM	3.62 µM	1.56 µM	3.13 µM	1.72 µM	3.22 µM	1.78 µM	3.27 µM
Cc1c(N(C(=O)c2cc(-c3cc(Cl)ccc3C(=O)N3Cc4ccccc4C[C@H]3CN3CCOCC3)n(C)c2C)c2ccc(O)cc2)cc(C#N)n1C	17.9 µM	> 100 µM	14.6 µM	36.9 µM	7.09 µM	> 100 µM	51 µM	> 100 µM	16.5 µM	40.7 µM	13.8 µM	> 100 µM	20.1 µM	> 100 µM	17.1 µM	35.2 µM	44.9 µM	> 100 µM	15.1 µM	44.9 µM
OCC1OC(O)C(N=Cc2ccc3c(c2)OCO3)C(O)C1O (stereo not given)	–	> 100 µM	–	> 100 µM	–	> 100 µM	–	> 100 µM	–	> 100 µM	–	> 100 µM	–	> 100 µM	–	> 100 µM	–	> 100 µM	–	> 100 µM
CC1=Cc2cc3[n-]c(cc4nc(cc5[n-]c(cc1n2)c(C)c5CCC(=O)O)C(CCC(=O)O)=C4C)cc3C.[Cu+2]	> 1 µM and 18.8 µM	> 1 µM and 41.9 µM	> 1 µM and 14.5 µM	> 1 µM and 31.5 µM	47.6 µM	> 100 µM	> 92.2 µM	> 100 µM	55.1 µM	> 100 µM	> 1 µM and 11.9 µM	> 1 µM and 32.9 µM	> 1 µM and 40.8 µM	> 85.4 µM	> 1 µM and 40.7 µM	> 100 µM	> 100 µM	> 100 µM	> 100 µM	> 100 µM
CCOC(=O)c1ccc2[nH]c(Cc3[nH]c4ccc(C(=O)OCC)cc4c3C)c(C)c2c1	2.04 µM	16.6 µM	1.22 µM	14.5 µM	4.94 µM	23.9 µM	1.51 µM	20.7 µM	3.53 µM	48.8 µM	3.9 µM	25.9 µM	9.4 µM	46.1 µM	2.51 µM	21.2 µM	8.94 µM	53.8 µM	4.35 µM	59.3 µM
CCC(=O)Nc1ccc2c(c1)CN1C(=O)c3ccccc3C1=N2	> 100 µM	> 100 µM	> 100 µM	> 100 µM	> 100 µM	> 100 µM	> 100 µM	> 100 µM	> 100 µM	> 100 µM	> 100 µM	> 100 µM	> 100 µM	> 100 µM	> 100 µM	> 100 µM	> 100 µM	> 100 µM	> 100 µM	> 100 µM
COc1cc(/C=C/C(=O)CC(=O)/C=C/c2ccc(OC(=O)CCNC34CC5CC(CC(C5)C3)C4)c(OC)c2)ccc1OC(=O)CCNC12CC3CC(CC(C3)C1)C2	6.75 µM	27.2 µM	3.28 µM	12.6 µM	5.89 µM	59.8 µM	2.95 µM	7.8 µM	2.08 µM	6.53 µM	4.65 µM	18.4 µM	4.24 µM	19.4 µM	4.71 µM	20.8 µM	4.34 µM	16.8 µM	1.93 µM	4.37 µM
COc1ccc(C(=O)c2ccc(OC)cc2OC)cc1	2.66 µM	8.81 µM	2.06 µM	5.32 µM	3.09 µM	> 100 µM	2.22 µM	24.7 µM	0.361 µM	2.34 µM	6.12 µM	> 100 µM	5 µM	> 100 µM	1.65 µM	3.51 µM	8.79 µM	> 100 µM	6.54 µM	41.3 µM
Cc1cc(Nc2nc(N3CCOCC3)nc3ccccc23)n[nH]1	3.69 µM	40.9 µM	18.8 µM	> 100 µM	9.63 µM	> 100 µM	0.4 µM	> 100 µM	4.03 µM	> 100 µM	26 µM	> 100 µM	87.7 µM	> 100 µM	3.09 µM	11.9 µM	25.4 µM	> 100 µM	24.8 µM	> 100 µM
C=C1C(=O)O[C@H]2[C@H]1CC/C(COC(=O)NCCc1c[nH]c3ccccc13)=C\CC[C@@]1(C)O[C@@H]21	12.5 µM	25.1 µM	2.44 µM	5.95 µM	1.7 µM	4.41 µM	5.41 µM	21.4 µM	1.62 µM	3.9 µM	6.46 µM	20.2 µM	2 µM	4.83 µM	1.36 µM	3.09 µM	2.3 µM	5.75 µM	1.67 µM	3.18 µM
CCCN1C(=O)/C(=C/c2ccc(O)cc2)SC1=Nc1ccccc1	18 µM	40.8 µM	22.8 µM	46 µM	22.5 µM	50.8 µM	19.9 µM	55.3 µM	21.6 µM	41.5 µM	21.1 µM	46.5 µM	> 100 µM	> 100 µM	22.7 µM	51.3 µM	21.7 µM	44.2 µM	22.9 µM	47.4 µM
Cc1ccc(-c2nc3nc(-c4ccc(Cl)cc4)nc(N4CCCNCC4)c3o2)cc1	1.75 µM	3.29 µM	1.82 µM	3.33 µM	1.94 µM	4.14 µM	1.93 µM	3.81 µM	1.81 µM	3.25 µM	1.7 µM	3.12 µM	1.91 µM	3.65 µM	2.08 µM	4.26 µM	1.53 µM	2.87 µM	1.89 µM	3.54 µM
C[C@]12CC[C@H]3[C@@H](CC=C4C[C@@H](O)CC[C@@]43C)[C@@H]1C/C(=C\c1cccc(OCCCn3ccnc3)c1)[C@@H]2O	16.2 µM	32.7 µM	6.26 µM	20.4 µM	6.4 µM	30.1 µM	11.9 µM	28.7 µM	9.99 µM	42.6 µM	17.1 µM	37.6 µM	13.1 µM	29.2 µM	8.33 µM	27 µM	17.2 µM	32.9 µM	17.8 µM	34.1 µM
CN(C)c1ccc2[nH]c(O)c(C=Nc3ccc(S(N)(=O)=O)cc3)c2c1	> 25 µM	> 25 µM	> 25 µM	> 25 µM	> 25 µM	> 25 µM	1.15 µM	> 25 µM	> 25 µM	> 25 µM	> 25 µM	> 25 µM	> 25 µM	> 25 µM	15.6 µM	> 25 µM	> 25 µM	> 25 µM	> 25 µM	> 25 µM
CC(C)C(NC(=O)C(CCCN=C(N)N)NC(=O)NC(Cc1ccccc1)C(=O)O)C(=O)NC(C=O)CCCN=C(N)N (stereo not drawn) ({Phe-CO}-Arg-Val-Arg-aldehyde; configuration not given here)	> 5 µM	> 5 µM	> 5 µM	> 5 µM	> 5 µM	> 5 µM	> 5 µM	> 5 µM	> 5 µM	> 5 µM	> 5 µM	> 5 µM	> 5 µM	> 5 µM	> 5 µM	> 5 µM	> 5 µM	> 5 µM	0.0202 µM	> 5 µM
C=C1C(=O)O[C@H]2[C@H]1CC/C(COC(=O)N[C@@H](Cc1c[nH]c3ccccc13)C(=O)OC)=C\CC[C@@]1(C)O[C@@H]21	12 µM	24.6 µM	1.68 µM	3.26 µM	1.84 µM	4.39 µM	4.11 µM	15.6 µM	1.49 µM	3.25 µM	2.48 µM	7.52 µM	1.86 µM	3.97 µM	1.73 µM	3.4 µM	2.02 µM	4.92 µM	1.95 µM	4.01 µM
CCC[CH2][Sn]([CH2]CCC)([O]C(=O)c1cccc(F)c1F)[O][Sn]([CH2]CCC)([CH2]CCC)[O]C(=O)c1cccc(F)c1F	0.915 µM	2.23 µM	0.52 µM	1.69 µM	0.0189 µM	0.186 µM	0.857 µM	2.22 µM	0.13 µM	1.09 µM	0.573 µM	1.7 µM	0.222 µM	0.728 µM	0.288 µM	0.969 µM	1.47 µM	2.9 µM	0.617 µM	1.92 µM
COc1ccc2c(c1)/C(=C/c1c(-c3ccc(C)cc3)nc3sc(C)cn13)C(=O)N2	23.9 µM	> 100 µM	11.9 µM	30.5 µM	5.5 µM	> 100 µM	23.1 µM	> 100 µM	19 µM	> 100 µM	20.6 µM	> 100 µM	16.8 µM	57.1 µM	19.8 µM	> 100 µM	16.6 µM	87.3 µM	13.4 µM	43.7 µM
